In patent US9045459B2, “Phenalkylamine derivatives, pharmaceutical compositions containing them, and their use in therapy” (AbbVie Deutschland GmbH & Co. KG, priority 2010, dated 2015):

Target: human GlyT1c transporter (Homo sapiens (Human), UniProt P48067)
Experiment: Radioligand binding assay using recombinant CHO cell membranes expressing human GlyT1
Conditions: read-out: radioligand binding Kiapp
Experimental: 2. Radioligand binding assays using recombinant CHO cell membranes expressing human GlyT1:
Radioligand binding to human GlyT1c transporter-expressing membranes was determined as described in Mezler et al., Molecular Pharmacology 74:1705-1715, 2008.

human GlyT1c transporter, sequence (P48067 whole entry): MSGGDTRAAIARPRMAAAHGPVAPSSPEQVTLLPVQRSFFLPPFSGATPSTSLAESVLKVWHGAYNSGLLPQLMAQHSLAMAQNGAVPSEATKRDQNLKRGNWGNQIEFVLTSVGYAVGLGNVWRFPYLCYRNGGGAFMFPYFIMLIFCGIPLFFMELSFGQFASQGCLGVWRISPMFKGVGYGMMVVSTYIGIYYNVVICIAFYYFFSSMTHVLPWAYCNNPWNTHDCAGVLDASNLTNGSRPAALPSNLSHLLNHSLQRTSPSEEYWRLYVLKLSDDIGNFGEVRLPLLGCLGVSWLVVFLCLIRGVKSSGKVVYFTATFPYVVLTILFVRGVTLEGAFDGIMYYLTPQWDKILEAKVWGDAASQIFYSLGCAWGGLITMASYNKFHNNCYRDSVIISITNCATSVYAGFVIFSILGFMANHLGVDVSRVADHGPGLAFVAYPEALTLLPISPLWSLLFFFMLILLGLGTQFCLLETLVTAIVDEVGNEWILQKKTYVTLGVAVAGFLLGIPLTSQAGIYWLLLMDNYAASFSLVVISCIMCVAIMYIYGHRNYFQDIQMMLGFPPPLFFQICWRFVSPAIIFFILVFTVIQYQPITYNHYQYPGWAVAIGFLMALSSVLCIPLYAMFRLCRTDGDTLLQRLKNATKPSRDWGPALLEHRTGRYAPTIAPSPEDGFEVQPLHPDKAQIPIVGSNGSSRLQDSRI

| Ki | Structure (SMILES) |
| --- | --- |
| ≤ 10 µM | Cn1cnc(S(=O)(=O)N2CCc3ccc(C(CN)Cc4ccccc4)cc3C2)c1 (centres unmarked) [Example 1, 2-(2-(1-Methyl-1H-imidazol-4-ylsulfonyl)-1,2,3,4-tetrahydroisoquinolin-7-yl)-3-phenylpropan-1-amine] |
| ≤ 10 µM | Cn1cc(S(=O)(=O)N2CCc3ccc(C(CN)Cc4ccccc4)cc3C2)cn1 (centres unmarked) [Example 2, 2-(2-(1-Methyl-1H-pyrazol-4-ylsulfonyl)-1,2,3,4-tetrahydroisoquinolin-7-yl)-3-phenylpropan-1-amine] |
